Measurements: patent publication EP2712863B1, “Novel inhibitors of bacterial biofilms and related methods” (Sequoia Sciences, Inc., priority 2012, dated 2014)
In brackets after ≈: the same amount, converted by molar mass. Read-outs that look alike come from different tables or passages of the source.

What was measured:
Pseudomonas syringae = experiment: Biofilm growth assay, plant pathogens; type: cell-based; conditions: 0.5% Noble agar, 30°C, approximately 24 to 48 hours
P. aeruginosa = experiment: Biofilm growth assay (spreading biofilm on semi-solid agar); type: cell-based; set-up: P. aeruginosa (n=10): unit not given here; conditions: for IC85: Pseudomonas aeruginosa, read-out: P. aeruginosa
Xanthomonas campestris = experiment: Biofilm growth assay, plant pathogens; type: cell-based; conditions: 0.5% Noble agar, 30°C, approximately 24 to 48 hours
E. coli = experiment: Biofilm growth assay (spreading biofilm on semi-solid agar); type: cell-based; set-up: E. coli (n=10): unit: ug/mL; conditions: for IC85: Escherichia coli, read-out: E. coli
Procedure, shortened: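 Spreading (swarming) biofilm on semi-solid agar: E. coli on LB with 0.6% agar and 0.5% glucose; P. aeruginosa on M8 agar with 0.2% glucose, 100 µM CaCl2, 1 mM MgSO4, 0.5% Casamino acids. Compound in medium; 5 µL overnight culture spotted centrally, 37°C overnight. Value: concentration (µg/ml) giving ≥85% reduction in spread area versus negative control.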

[1] = test system: Pectobacterium atrosepticum; experiment: Biofilm growth assay, plant pathogens; type: cell-based; conditions: 0.5% Noble agar, 30°C, approximately 24 to 48 hours
Burkholderia cepacia = experiment: Biofilm growth assay, multiple isolates; type: cell-based; conditions: Table 6; inhibitory concentration in the biofilm growth assay; n = number of isolates tested
Procedure: (§1) The biofilm growth assay was carried out to measure swarming or biofilm spreading on semi-solid agar media in round plates (for example, 100 × 15 mm), also referred to as Petri dishes. For E. coli, the plates contained LB medium with 0.6% agar and 0.5% glucose. P. aeruginosa plates were made with M8 agar supplemented with 0.2% glucose, 100 µM CaCl2, 1 mM MgSO4, and 0.5% Casamino acids. The agar plates of this assay consisted of 0.4% to 0.7% agar (Bacto or Noble agar), although other media may also be used as described in the literature and known to those skilled in the art. Test compounds at the desired concentration were added to the cooled, autoclaved media. Portions of the media were then poured into the plates (20 mL/plate), and the plates allowed to dry at room temperature for approximately 3 to 4 hours. Alternatively, however, plates may be dried in a laminar flow hood for approximately fifteen to twenty minutes. Overnight cultures were grown in a 37°C shaker in LB (E. coli) or TSB (P. aeruginosa). Plates were inoculated by placing 5 µL of the appropriate overnight culture in the centers of the plates. The plates then were incubated overnight at 37°C. The area of the zone of spreading bacteria was then measured and replicates are averaged. Percent inhibition was calculated as 100 × (area without compound - area with compound)/(area without compound). An active compound was considered that which reduces the area of the spreading biofilm compared to negative controls by greater than or equal to 85%. The values shown in Table 1 are the concentrations of compounds (µg/ml) tested in the biofilm growth assay that reduce the area of the spreading biofilm compared to negative controls by greater than or equal to 85% unless noted differently in Table 1. A > ("greater than" symbol) as used in Table 1 is well understood to those skilled in the art as an indication that the listed concentration was not effective at this concentration.
(§2) Table 6, below, lists the inhibitory concentrations of select compounds and antibiotics in the biofilm growth assay against various gram-negative bacterial biofilms. "N" means the number of isolates of bacteria tested. The biofilm growth assay procedure detailed in Example I, above, was followed. Burkholderia cepacia used media consisting of M9 salts, 100 µM CaCl2, 1 mM MgS04, and 0.7% citrate in 0.4% Noble agar. Salmonella spp. used media consisting of Nutrient Broth with 0.5% glucose in 0.5% Noble agar.

Salmonella spp. = experiment: Biofilm growth assay, multiple isolates; type: cell-based; conditions: Table 6; inhibitory concentration in the biofilm growth assay; n = number of isolates tested
Procedure: as §1, §2

[2] = Bioavailability in mice (serum level after oral or IP administration); type: in vivo; conditions: orally or via IP injection at approximately 20 mg/kg to 50 mg/kg; 30 minutes or 1 hour after administration
Procedure: The bioavailabilities of certain compounds were examined in mice. Administration of the compounds was performed orally and by intraperitoneal (IP) injection using a vehicle as known to those skilled in the art. Many vehicles can be used to examine bioavailability. Prior to administration, each vehicle was optimized based on compound solubility according to the formulation research conducted by Uckun et al. (Arznelmittel-Forschung (Drug Research) 2007; 57(4):218-226). […] The concentration of PEG400 is modulated depending upon solubility of the compounds and the amount of aqueous phase added (0.02 M citrate and 0.9% NaCl).

P. aeruginosa biofilm = experiment: Biofilm growth assay with antibiotic disks (synergy); type: cell-based; conditions: 0.125 µg/ml in the agar with colistin 10 µg disks
Procedure: INHIBITION OF THE GROWTH OF PREFORMED BIOFILMS. The Biofilm Growth Assay as described in Example VII was performed in round plates with the compounds of the invention in agar on half of the plate and antibiotic disks placed onto the agar containing the compounds of the invention.
The Biofilm Growth Assay was performed as described in Example VIII. 2 to 4 antibiotic disks were placed onto the agar containing a compound of the invention in a line parallel to the line that separates the two agars in one round plate. Appropriate negative and positive control plates were performed as known to those skilled in the art.

Evaluation of salts = type: physicochemical
Procedure: Evaluation of Compound 62 (Table 4) salt formation was performed. […] As stated herein, the invention also includes compounds and their salts. Evaluation of Compound 64 (Table 4) salt formation was performed. HCl (mono and bis), p-TSA (bis), BSA (bis), MSA (bis), H2SO4 (mono), and H3PO4 (mono) provided salts with crystallinity. […] As stated herein, the invention also includes compounds and their salts.

[3] = Table 1, concentration that reduces the area of the spreading biofilm vs negative controls by >= 85%, > means not effective at this concentration
[4] = Table 2, concentration that reduces the area of the spreading biofilm by >= 85%
[5] = Table 6, inhibitory concentration in the biofilm growth assay, n = number of isolates tested
[6] = Table 4, concentration that reduces the area of the spreading biofilm by >= 85%

CC1(C)CC[C@]2(C(=O)O)CC[C@]3(C)C(=CCC4[C@@]5(C)Cc6c(n[nH]c6N)C(C)(C)C5CC[C@]43C)C2C1 (stereo in doubt) [Compound 1, (4aS,6aS,6bR,13aR)-12-Amino-2,2,6a,6b,9,9,13a-heptamethyl-2,3,4,4a,5,6,6a,6b,7,8,8a,9,11,13,13a,13b,14,15b-octadecahydro-1H-chryseno[1,2-f]indazole-4a-carboxylic acid]
concentration found to inhibit the spreading biofilms (Pseudomonas syringae): 0.03 µg/mL | growth of the spreading P. aeruginosa biofilm (Figure 1) (P. aeruginosa; 0.5 µg/ml in the agar, overnight incubation at 37°C): prevented the growth of the spreading P. aeruginosa biofilm | optimal working concentration (P. aeruginosa; Figure 2 legend): 0.5 µg/mL | IC85 (P. aeruginosa; [3]): 0.5 µg/mL (≈ 1.01 µM) | P. aeruginosa (P. aeruginosa; [4]): 0.5 µg/mL | P. aeruginosa (n=10) (P. aeruginosa; [5]): 1 | concentration found to inhibit the spreading biofilms (Xanthomonas campestris): 0.5 µg/mL | IC85 (E. coli; [3]): 1 µg/mL (≈ 2.03 µM) | E. coli (E. coli; [4]): 1 µg/mL | E. coli (n=10) (E. coli; [5]): 1 | concentration found to inhibit the spreading biofilms [1]: 0.06 µg/mL | inhibitory concentration (Burkholderia cepacia): 0.25 | inhibitory concentration in biofilm growth assay (Salmonella spp.): 1 | concentration in the serum of mice [2]: > 5000 ng/mL | combination with colistin at preventing the growth of P. aeruginosa biofilms (Figure 2) (P. aeruginosa biofilm): synergistic

CC1(C)CC[C@]2(C(N)=O)CC[C@]3(C)C(=CCC4[C@@]5(C)Cc6c(n[nH]c6N)C(C)(C)C5CC[C@]43C)C2C1 (stereo partly drawn) [Compound 62, (4aS,6aS,6bR,13aR)-12-Amino-2,2,6a,6b,9,9,13a-heptamethyl-2,3,4,4a,5,6,6a,6b,7,8,8a,9,11,13,13a,13b,14,15b-octadecahydro-1H-chryseno[1,2-f]indazole-4a-carboxamide]
IC85 (P. aeruginosa; [6]): 1 µg/mL (≈ 2.03 µM) | IC85 (E. coli; [6]): 1 µg/mL (≈ 2.03 µM) | physical properties compared to freebase (Evaluation of salts; p-toluenesulfonic acid (mono) and H3PO4 (bis) salts): most desirable physical properties

CN(C)C[C@]12CCC(C)(C)CC1C1=CCC3[C@@]4(C)Cc5c(n[nH]c5N)C(C)(C)C4CC[C@@]3(C)[C@]1(C)CC2 (stereo partly drawn) [Compound 64, (4aS,6aS,6bR,13aR)-4a-((Dimethylamino)methyl)-2,2,6a,6b,9,9,13a-heptamethyl-2,3,4,4a,5,6,6a,6b,7,8,8a,9,11,13,13a,13b,14,15b-octadecahydro-1H-chryseno[1,2-f]indazol-12-amine]
IC85 (P. aeruginosa; [6]): 0.5 µg/mL (≈ 0.987 µM) | IC85 (E. coli; [6]): 1 µg/mL (≈ 1.97 µM) | aqueous solubility compared to freebase (Evaluation of salts; Bis-MSA and mono-H3PO4 salts): increased aqueous solubility | concentration in the serum of mice [2]: > 5000 ng/mL

CC1(C)CC[C@]2(C(=O)O)CC[C@]3(C)C(=C(c4cccnc4)CC4[C@@]5(C)Cc6c(n[nH]c6N)C(C)(C)[C@@H]5CC[C@]43C)[C@@H]2C1 (stereo partly drawn) [Compound 12, (4aS,6aS,6bR,8aR,13aR,15bS)-12-Amino-2,2,6a,6b,9,9,13a-heptamethyl-15-(pyridin-3-yl)-2,3,4,4a,5,6,6a,6b,7,8,8a,9,11,13,13a,13b,14,15b-octadecahydro-1H-chryseno[1,2-f]indazole-4a-carboxylic acid]
IC85 (P. aeruginosa; [4]): 0.5 µg/mL (≈ 0.876 µM) | IC85 (E. coli; [4]): 1 µg/mL (≈ 1.75 µM) | concentration in the serum of mice [2]: > 5000 ng/mL
